Test results reported in patent US7078422B2, “Activator for peroxisome proliferator-activated receptor” (Nippon Chemiphar Co., Ltd., priority 2001, dated 2006).

Assays:
GAL4-hPPARγ LBD = molecular target: T1, GAL4-hPPARγ LBD (Homo sapiens, UniProt P37231); test: PPARγ transactivation activity (GAL4 chimeric receptor luciferase reporter in CV-1 cells); format: cell-based; conditions: tested compound at 10^−5 M, control 10^−5 M Rosiglitazone set to 100%, DMSO alone 0%, 40 hours
T1 construct: Receptor expression plasmid (GAL4-hPPARγ LBD, GAL4-hPPARδ LBD); expressed in transfected cells; host or cells: CV-1 cells
T1 sequence (P37231 238-503 limits assumed): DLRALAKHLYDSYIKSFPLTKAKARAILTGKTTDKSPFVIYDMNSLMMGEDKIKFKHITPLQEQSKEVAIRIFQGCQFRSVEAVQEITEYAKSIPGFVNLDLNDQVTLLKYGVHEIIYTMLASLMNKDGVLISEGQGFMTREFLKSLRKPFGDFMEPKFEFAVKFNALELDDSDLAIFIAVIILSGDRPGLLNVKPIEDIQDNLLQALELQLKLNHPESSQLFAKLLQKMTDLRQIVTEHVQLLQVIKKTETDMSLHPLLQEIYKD
Experimental: (§1) The luciferase activity is calibrated by the β-GAL activity. A relative ligand activity relating to PPARγ-activating effect is calculated in the same manner (see the below-described Example 3).
(§2) (1) Measurement of PPARγ, δ Transactivation Activity
(§3) Each of PPARγ & δ transactivation activities of the tested compound [compound of Example 1 and known PPARγ agonist (Rosiglitazone) and known PPARδ agonist (L-165041)] was measured in the manner described below.
CV-1 was obtained from Tohoku University Aging Medical Laboratory, Medical Cell Collection Center. All test compounds were dissolved in dimethylsulfoxide (DMSO) to give a test sample of 0.1% concentration.
Receptor expression plasmid (GAL4-hPPARγ LBD, GAL4-hPPARδ LBD), Luciferase expression plasmid (UASx4-TK-LUC), and β-galactosidase expression plasmid (βGAL) similar to Kliewer, S. A., et al., ((1992) Nature, 358:771–774) were employed. […]
The culture medium was removed and the cells were washed with PBS twice. […] (luciferase activity) was measured by means of MLR-100 type Microluminoreader (available from Corona Electrics Co., Ltd.). […] A relative PPAR activity was calculated based on the following: 0% (luciferase activity (control value) of cells treated with DMSO (0.1% concentration, solvent) alone), 100% (luciferase activity of cells treated with a control reagent (PPARγ: 10^−5 M Rosiglitazone, PPARδ: 10^−4 M L-165041)).

GAL4-hPPARδ LBD = molecular target: T2, GAL4-hPPARδ LBD (Homo sapiens, UniProt Q03181); test: PPARδ transactivation activity (GAL4 chimeric receptor luciferase reporter in CV-1 cells); format: cell-based; conditions: tested compound at 10^−5 M, control 10^−4 M L-165041 set to 100%, DMSO alone 0%, 40 hours
T2 construct: A chimeric receptor expression plasmid (GAL4-hPPARδ LBD); expressed in transfected cells; host or cells: CV-1 cells
T2 sequence (Q03181 211-439 limits assumed): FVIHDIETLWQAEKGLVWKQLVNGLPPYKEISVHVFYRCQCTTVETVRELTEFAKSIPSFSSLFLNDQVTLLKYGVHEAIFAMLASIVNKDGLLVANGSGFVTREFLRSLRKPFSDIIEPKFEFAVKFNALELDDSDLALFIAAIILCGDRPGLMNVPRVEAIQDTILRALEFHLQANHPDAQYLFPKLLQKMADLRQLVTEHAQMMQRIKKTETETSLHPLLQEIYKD
Experimental: The PPARδ activating effect of the compound of the invention was determined by the following method:
A chimeric receptor expression plasmid (GAL4-hPPARδ LBD), a reporter plasmid (UASx4-TK-LUC) and β-galactosidase (β-GAL) are transfected into CV-1 cells by utilizing a lipofection reagent DMRIE-C (Life Technologies). Subsequently, it is incubated for 40 hours in the presence of a compound of the invention or a compound for comparison (GW-2433), and then the luciferase activity and β-GAL activity are measured on the soluble cells.
as §1, §2, §3
CV-1 was obtained from Tohoku University Aging Medical Laboratory, Medical Cell Collection Center. All test compounds were dissolved in dimethylsulfoxide (DMSO) to give a test sample of 0.1% concentration. […]
The culture medium was removed and the cells were washed with PBS twice. […] (luciferase activity) was measured by means of MLR-100 type Microluminoreader (available from Corona Electrics Co., Ltd.). […]

## CC(C)c1oc(-c2ccccc2Cl)nc1CCCC(=O)c1ccc(CC(=O)O)cc1 [Example 1, [4-[4-[2-(2-Chlorophenyl)-5-isopropyloxazol-4-yl]butyryl]phenyl]acetic acid]
GAL4-hPPARγ LBD
  PPAR activity (relative value) for PPARγ: 50%
GAL4-hPPARδ LBD
  PPAR activity (relative value) for PPARδ: 93±3%
